Test results from PubChem BioAssay (NCI).
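Grown in 96-well plates, cells were treated for 48 hours with each compound at five concentrations. Insufficient inhibition: endpoint recorded as highest concentration tested. GI50 marks 50% less growth. TGI denotes the concentration required for complete inhibition of growth.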

Columns and labels:
Test in all cases: NCI anticancer screen, dose series, 48 h
[1] = test system: 786-0 renal
[2] = test system: A498 renal
[3] = test system: A549 NSCLC
[4] = test system: ACHN renal
[5] = test system: BT-549 breast
[6] = test system: CAKI-1 renal
[7] = test system: CCRF-CEM leukemia
[8] = test system: COLO 205 colon
[9] = test system: DU-145 prostate
[10] = test system: EKVX NSCLC
[11] = test system: HCC-2998 colon
[12] = test system: HCT-116 colon
[13] = test system: HCT-15 colon
[14] = test system: HL-60(TB) leukemia
[15] = test system: HOP-62 NSCLC
[16] = test system: HOP-92 NSCLC
[17] = test system: HS 578T breast
[18] = test system: HT29 colon
[19] = test system: IGROV1 ovarian
[20] = test system: K-562 leukemia
[21] = test system: KM12 colon
[22] = test system: LOX IMVI melanoma
[23] = test system: M14 melanoma
[24] = test system: MALME-3M melanoma
[25] = test system: MCF7 breast
[26] = test system: MDA-MB-231 breast
[27] = test system: MDA-MB-435
[28] = test system: MDA-MB-468 breast
[29] = test system: MOLT-4 leukemia
[30] = test system: NCI-H226 lung
[31] = test system: NCI-H23 lung
[32] = test system: NCI-H460 lung
[33] = test system: NCI-H522 lung
[34] = test system: OVCAR-3 ovarian
[35] = test system: OVCAR-4 ovarian
[36] = test system: OVCAR-5 ovarian
[37] = test system: OVCAR-8 ovarian
[38] = test system: PC-3 prostate
[39] = test system: RPMI-8226 leukemia
[40] = test system: RXF 393 renal
[41] = test system: SF-268 CNS
[42] = test system: SF-295 CNS
[43] = test system: SF-539 CNS
[44] = test system: SK-MEL-2 melanoma
[45] = test system: SK-MEL-28 melanoma
[46] = test system: SK-MEL-5 melanoma
[47] = test system: SK-OV-3 ovarian
[48] = test system: SN12C renal
[49] = test system: SNB-19 CNS
[50] = test system: SNB-75 CNS
[51] = test system: SR leukemia
[52] = test system: SW-620 colon
[53] = test system: T-47D breast
[54] = test system: TK-10 renal
[55] = test system: UACC-257 melanoma
[56] = test system: UACC-62 melanoma
[57] = test system: UO-31 renal

Which GI50 [1] does the source give for `CONC[C@]1(C)C=C2C(=O)[C@](C)(O)C3(CC3)C(C)=C2[C@H]1O` here?
Its GI50 is 1650 nM.

And the TGI [1]?
Its TGI is 6900 nM.

What about the GI50 [2] of the same molecule?
The GI50 was 2230 nM.

What about the TGI [2] of the same molecule?
Its TGI is 5390 nM.

What about the GI50 [3] of the same molecule?
The GI50 was 324 nM.

And the TGI [3]?
The TGI was 11300 nM.

And the GI50 [4]?
Its GI50 is 233 nM.

What about the TGI [4] of the same molecule?
Its TGI is 565 nM.

What about the GI50 [5] of the same molecule?
The GI50 was 1020 nM.

And the TGI [5]?
The TGI was 4670 nM.

What about the GI50 [6] of the same molecule?
Its GI50 is 1050 nM.

What about the TGI [6] of the same molecule?
The TGI was 18800 nM.

And the GI50 [7]?
Its GI50 is 570 nM.

What about the TGI [7] of the same molecule?
Its TGI is 6660 nM.

And the GI50 [8]?
Its GI50 is 1480 nM.

And the TGI [8]?
The TGI was 3210 nM.

What about the GI50 [9] of the same molecule?
The GI50 was 436 nM.

What about the TGI [9] of the same molecule?
Its TGI is 16500 nM.

And the GI50 [10]?
Its GI50 is 1770 nM.

What about the TGI [10] of the same molecule?
The TGI was 4850 nM.

And the GI50 [11]?
Its GI50 is 1380 nM.

And the TGI [11]?
Its TGI is 3400 nM.

And the GI50 [12]?
Its GI50 is 298 nM.

And the TGI [12]?
Its TGI is 46400 nM.

What about the GI50 [13] of the same molecule?
The GI50 was 384 nM.

And the TGI [13]?
Its TGI is greater than 100000 nM.

What about the GI50 [14] of the same molecule?
The GI50 was 485 nM.

And the TGI [14]?
Its TGI is 6440 nM.

What about the GI50 [15] of the same molecule?
Its GI50 is 1630 nM.

And the TGI [15]?
The TGI was 4550 nM.

What about the GI50 [16] of the same molecule?
The GI50 was 705 nM.

And the TGI [16]?
Its TGI is 4320 nM.

And the GI50 [17]?
The GI50 was 2550 nM.

What about the TGI [17] of the same molecule?
Its TGI is 7260 nM.

What about the GI50 [18] of the same molecule?
The GI50 was 420 nM.

What about the TGI [18] of the same molecule?
The TGI was 6660 nM.

And the GI50 [19]?
Its GI50 is 1600 nM.

What about the TGI [19] of the same molecule?
The TGI was 8010 nM.

What about the GI50 [20] of the same molecule?
The GI50 was 661 nM.

And the TGI [20]?
Its TGI is greater than 100000 nM.

What about the GI50 [21] of the same molecule?
The GI50 was 2320 nM.

What about the TGI [21] of the same molecule?
The TGI was 15400 nM.

And the GI50 [22]?
The GI50 was 868 nM.

And the TGI [22]?
The TGI was 6630 nM.

What about the GI50 [23] of the same molecule?
Its GI50 is 1410 nM.

What about the TGI [23] of the same molecule?
Its TGI is 4870 nM.

And the GI50 [24]?
The GI50 was 1050 nM.

What about the TGI [24] of the same molecule?
The TGI was 2490 nM.

What about the GI50 [25] of the same molecule?
The GI50 was 298 nM.

What about the TGI [25] of the same molecule?
The TGI was 5340 nM.

What about the GI50 [26] of the same molecule?
The GI50 was 1750 nM.

And the TGI [26]?
The TGI was 5880 nM.

What about the GI50 [27] of the same molecule?
Its GI50 is 1840 nM.

And the TGI [27]?
The TGI was 3900 nM.

And the GI50 [28]?
Its GI50 is 518 nM.

What about the TGI [28] of the same molecule?
Its TGI is 1970 nM.

What about the GI50 [29] of the same molecule?
The GI50 was 688 nM.

What about the TGI [29] of the same molecule?
The TGI was greater than 100000 nM.

What about the GI50 [30] of the same molecule?
Its GI50 is 2950 nM.

And the TGI [30]?
The TGI was 9130 nM.

And the GI50 [31]?
The GI50 was 422 nM.

And the TGI [31]?
Its TGI is 1890 nM.

And the GI50 [32]?
Its GI50 is 353 nM.

And the TGI [32]?
Its TGI is 11000 nM.

And the GI50 [33]?
The GI50 was 314 nM.

And the TGI [33]?
The TGI was 1470 nM.

What about the GI50 [34] of the same molecule?
Its GI50 is 2660 nM.

What about the TGI [34] of the same molecule?
The TGI was 7960 nM.

And the GI50 [35]?
The GI50 was 2900 nM.

And the TGI [35]?
Its TGI is 9090 nM.

And the GI50 [36]?
Its GI50 is 346 nM.

And the TGI [36]?
Its TGI is 5650 nM.

And the GI50 [37]?
The GI50 was 1440 nM.

And the TGI [37]?
Its TGI is 4350 nM.

And the GI50 [38]?
Its GI50 is 754 nM.

And the TGI [38]?
Its TGI is 6120 nM.

And the GI50 [39]?
The GI50 was 9670 nM.

What about the TGI [39] of the same molecule?
The TGI was greater than 100000 nM.

What about the GI50 [40] of the same molecule?
Its GI50 is 410 nM.

And the TGI [40]?
Its TGI is 1650 nM.

What about the GI50 [41] of the same molecule?
The GI50 was 1070 nM.

And the TGI [41]?
The TGI was 12800 nM.

What about the GI50 [42] of the same molecule?
The GI50 was 345 nM.

What about the TGI [42] of the same molecule?
Its TGI is 42400 nM.

What about the GI50 [43] of the same molecule?
Its GI50 is 1280 nM.

And the TGI [43]?
Its TGI is 2790 nM.

And the GI50 [44]?
Its GI50 is 858 nM.

What about the TGI [44] of the same molecule?
The TGI was 2250 nM.

What about the GI50 [45] of the same molecule?
The GI50 was 1810 nM.

What about the TGI [45] of the same molecule?
The TGI was 3780 nM.

And the GI50 [46]?
Its GI50 is 1050 nM.

What about the TGI [46] of the same molecule?
Its TGI is 4950 nM.

What about the GI50 [47] of the same molecule?
Its GI50 is 1310 nM.

What about the TGI [47] of the same molecule?
Its TGI is 4830 nM.

What about the GI50 [48] of the same molecule?
Its GI50 is 2330 nM.

What about the TGI [48] of the same molecule?
Its TGI is 9360 nM.

And the GI50 [49]?
Its GI50 is 2120 nM.

And the TGI [49]?
Its TGI is 7580 nM.

And the GI50 [50]?
Its GI50 is 1760 nM.

What about the TGI [50] of the same molecule?
Its TGI is 3800 nM.

What about the GI50 [51] of the same molecule?
The GI50 was 650 nM.

What about the TGI [51] of the same molecule?
The TGI was greater than 100000 nM.

And the GI50 [52]?
Its GI50 is 1780 nM.

And the TGI [52]?
Its TGI is greater than 100000 nM.

And the GI50 [53]?
Its GI50 is 2050 nM.

And the TGI [53]?
The TGI was 7890 nM.

What about the GI50 [54] of the same molecule?
The GI50 was 3320 nM.

And the TGI [54]?
Its TGI is 19200 nM.

What about the GI50 [55] of the same molecule?
The GI50 was 1720 nM.

What about the TGI [55] of the same molecule?
The TGI was 4620 nM.

What about the GI50 [56] of the same molecule?
The GI50 was 1550 nM.

And the TGI [56]?
Its TGI is 3010 nM.

What about the GI50 [57] of the same molecule?
Its GI50 is 1270 nM.

And the TGI [57]?
Its TGI is 4390 nM.
